Laboratory results from patent publication US11613552B2, “Pharmaceutical agents, compositions, and methods relating thereto” (Alltech, Inc., priority 2017, dated 2023).

Legend:
H4IIE cells = assay: Cell viability (CellTiter96 AQueous One) in H4IIE cells; assay type: cell-based, rat; conditions: tested doses
Method: After the above treatments, 50 μl of culture media were collected, and subjected to glucose analysis using Molecular Probes Amplex Red glucose assay kit (Cat #A22189) according to the manufacturer's protocol. Cell numbers or viability in the culture plate after the above compound treatments were determined using Promega's CellTiter96® AQueous One Solution Cell Proliferation Assay kits, according to the manufacturer's protocol and instructions. In brief, after removing 50 μl of culture media for glucose assay, cells were incubated with AQueous One solution (25 μl stock solution and 50 μl prewarmed PBS/per well) at 37° C. for 1 hour, and the absorbance of OD490 nm in each sample was determined by the Bio-Tek microplate reader. Cell viability in culture wells were determined by the subtraction of OD490 nm in cultured cells with the OD490 nm in plain culture media (without seeding of cells). Glucose production in the culture cells were obtained by normalizing the glucose concentration in culture media by cell viability in each well. At least 3 samples per each treatment were examined for the above analysis. Data are presented as Mean±SEM of those samples. Experiments were repeated at least twice.

PDK1/AKT/FOXO1 = assay: Western blot of PDK1/AKT/FOXO1 in serum-starved HepG2 cells; assay type: cell-based, human
Method: HepG2 cells were seeded on 6-well plates (7×10^5 cells/well) and cultured in 10% FBS EMEM media for 30 hr. Then these cells were washed twice with PBS to remove residual sera, and serum-starved in plain EMEM media overnight. […]
After the above described treatments, cultured HepG2 and AML-12 cells were rinsed twice with ice-cold PBS and lysed in ice-cold RIPA buffer containing complete proteinase and phosphatase inhibitors (Thermo-Fisher Scientific, Waltham, Mass.) on ice for 30 min. Cell lysates were collected using a cell scraper and transfer pipette, and then centrifuged at 12000×g for 30 min at 4° C. to remove the DNA pellet and obtain the protein extract. Protein levels in the supernatant of these cell lysates were determined using the Pierce Micro-BCA protein assay kit (Thermo Scientific-Piece Biotechnology, Rockford, Ill.) according to the manufacturer's protocol.
One hundred micrograms of liver tissue proteins or five micrograms of total proteins from control- and compound(s)-treated HepG2 or AML-12 cells were subjected to SDS-PAGE gel separation and then transferred to PVDF membranes, as described previously (Reddy et al. 2008 Science). Membranes were blocked in a phosphate-buffered saline (PBS) containing 5% (w/v) of bovine serum albumin (Sigma, St. Louis, Mo.) and incubated with specific primary antibodies followed by the incubation with HRP-conjugated anti-mouse or anti-rabbit secondary antibodies (1:5000 dilution, Cell Signaling Inc.). All primary antibodies except Gapdh (Li-COR, Lincoln, Nebr.) were purchased from Cell Signaling Inc. Positive signals on the membrane blots were detected using the Amersham's enhanced chemiluminescence Western Blotting Prime Detection reagents (GE Healthcare Lifescience, Pittsburgh, Pa.). Images of these luminescence signals on the membrane blots were captured using the LI-COR Odyssey Fc Image system (Lincoln, Nebr.). The same membrane blot was stripped and re-blotted with another antibody as described in the GE WB ECL-prime-detection protocol (GE healthcare Lifescience, Pittsburgh, Pa.). Protein band densities in the Western blots were determined using the NIH ImageJ software and then normalized by Gapdh or Actb/ACTB level in each sample. Data are presented as mean±SEM of three samples per each group.

Glut4 = assay: QRT-PCR of Glut4 mRNA in livers of Lepr^db/db mice; assay type: in vivo, mouse; conditions: 25 μg selenium/kg ip daily, 52 days (FIG. 15)
Method: Male Lepr^db/db mice (C57BL/6J strain, purchased from The Jackson Laboratory) at postnatal day 38 were intraperitoneally injected daily with physiological saline ([…]) containing 0.2% DMSO, Compound #43, or Compound #50 (25 μg selenium of each compound per kilogram body weight, diluted in sterile physiological saline) for 52 days. After treatment, livers were collected and subjected to RNA analysis.
Total liver RNA from saline- or Compound #43-treated Lepr^db/db mice was isolated using a Qiagen RNAeasy RNA isolation kit according to the Manufacturer's protocol. Total RNA from cultured cells was isolated using Trizol (Invitrogen) according to the manufacturer's protocol, and then incubated with DNase I to remove any potential contaminating genomic DNA. RNA samples were subjected to real-time PCR analysis using Applied-Bioscience's RT kit and predesigned Taqman probes (Invitrogen), as described previously (Lan et al EMBO J 2003). Data were normalized by Actin B (Actb) mRNA levels in each sample and are presented as mean±SEM of 3-5 samples.

[1] = tested on: differentiated C2C12 cells; assay: Glucose uptake in differentiated C2C12 (skeletal muscle) cells; assay type: cell-based, mouse
Method: The mouse myoblast C2C12 cells were purchased from the American Type Culture Collection (ATCC, Manassas, Va.). These cells were amplified in DMEM media supplemented with 10% FBS. Equal number of C2C12 cells were then seeded on 96-well plates (5000 cells/well) and cultured in 10% FBS DMEM media at 37° C. for 5 days. Cells were replenished daily with fresh 10% FBS DMEM media. At day 5 of culture, C2C12 cells were differentiated using 0.5% horse serum (Sigma)-containing DMEM media (differentiation media) continuing for 7 days with daily replacement of fresh differentiation media, as previously described (Misu et al, Cell Metabolism 12, 483-495, 2010). At day 7 post-differentiation, differentiated C2C12 cells were rinsed with PBS twice and pretreated without or with 0.006% DMSO (Compound #43 solvent) or Compound #43 (300 or 600 ppb) in serum-free glucose-free DMEM media overnight. Then these cells were washed once with PBS, and then treated without (basal) or with insulin (200 nM), Compound #43 (300 and 600 ppb), or both insulin and Compound #43 in glucose/phenol red-free DMEM media at 37° C. for 1.5 hr. After treatment, media was removed and cells were washed once with PBS and incubated with 1 mM 2-deoxyglucose (2DG) at room temperature for 30 min. […] Luminescent signals were recorded using a Bio-Tek luminometer.

C[Se]C[C@H]1O[C@@H](n2cnc3c(N)ncnc32)C(OC(C)=O)C1OC(C)=O (some centres unmarked) [Compound #43, Adenosine, 5′-Se-methyl-5′-selino-, 2′,3′-diacetate]
toxic effect on cell viability (H4IIE cells): No toxic effect | time of peak increase of pPDK1 (PDK1/AKT/FOXO1; 600 ppb): 60-90 minutes | phosphorylated AKT at T308 (PDK1/AKT/FOXO1; 600 ppb, 30, 60, 90 minutes and 24 hr (FIG. 13C)): significant and transient increase of phosphorylated AKT at T308 | phosphorylated FOXO1 at T24 (PDK1/AKT/FOXO1; 600 ppb, 90 minutes and longer (FIG. 13E)): significantly increased | total AKT protein levels (PDK1/AKT/FOXO1; 600 ppb, all tested time points): not significantly altered | total Foxo1 protein levels (PDK1/AKT/FOXO1; 600 ppb, less than 24 hours): no significant change in total FOXO1 protein levels | total Foxo1 protein levels (PDK1/AKT/FOXO1; 600 ppb, prolonged treatment 30 hr or 48 hr): slight but statistically significant decrease of total FOXO1 proteins | pPDK1 protein level (PDK1/AKT/FOXO1; 600 ppb, serum-free, 30, 60, 90 minutes (FIG. 13B)): significant and transient increase of pPDK1 | increase in Glut4 mRNA expression levels in the liver (Glut4): 5 fold | increase in glucose uptake ([1]; co-treatment insulin 200 nM and Compound #43 300 ppb): 63% | increase of glucose uptake ([1]; co-treatment insulin 200 nM and Compound #43 600 ppb): 79%
